The target in this test is T1, SAMTOR (Homo sapiens, UniProt Q1RMZ1).
T1 sequence (Q1RMZ1 1-405): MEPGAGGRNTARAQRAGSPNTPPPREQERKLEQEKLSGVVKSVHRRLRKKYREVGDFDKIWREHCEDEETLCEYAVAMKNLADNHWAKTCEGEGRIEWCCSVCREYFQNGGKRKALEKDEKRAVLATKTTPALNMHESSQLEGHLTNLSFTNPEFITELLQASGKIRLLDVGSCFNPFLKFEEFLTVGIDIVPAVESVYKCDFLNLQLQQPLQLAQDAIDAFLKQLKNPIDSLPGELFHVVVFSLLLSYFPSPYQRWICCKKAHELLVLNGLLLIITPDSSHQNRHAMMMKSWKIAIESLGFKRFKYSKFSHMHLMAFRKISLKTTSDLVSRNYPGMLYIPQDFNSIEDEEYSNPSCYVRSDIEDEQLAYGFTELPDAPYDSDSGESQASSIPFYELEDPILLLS
As to the kind of experiment: competition binding against [3H]SAM on purified FLAG-SAMTOR. As to conditions: competitive with [3H]SAM.

This is an account of results in article PMC5747364 (Science (New York, N.Y.), 2017).

Regarding `Nc1ncnc2c1ncn2[C@@H]1O[C@H](CSCC[C@H](N)C(=O)O)[C@@H](O)[C@H]1O` [SAH], the Ki entry is listed as “SAMTOR can also bind S-adenosylhomocysteine (SAH), the demethylated form of SAM”.
